# Biological target: T1, human Fpn (Homo sapiens, UniProt Q9NP59)
# T1 construct: FLAG (C); made in house; host or cells: Pichia pastoris
# T1 sequence (Q9NP59 1-571): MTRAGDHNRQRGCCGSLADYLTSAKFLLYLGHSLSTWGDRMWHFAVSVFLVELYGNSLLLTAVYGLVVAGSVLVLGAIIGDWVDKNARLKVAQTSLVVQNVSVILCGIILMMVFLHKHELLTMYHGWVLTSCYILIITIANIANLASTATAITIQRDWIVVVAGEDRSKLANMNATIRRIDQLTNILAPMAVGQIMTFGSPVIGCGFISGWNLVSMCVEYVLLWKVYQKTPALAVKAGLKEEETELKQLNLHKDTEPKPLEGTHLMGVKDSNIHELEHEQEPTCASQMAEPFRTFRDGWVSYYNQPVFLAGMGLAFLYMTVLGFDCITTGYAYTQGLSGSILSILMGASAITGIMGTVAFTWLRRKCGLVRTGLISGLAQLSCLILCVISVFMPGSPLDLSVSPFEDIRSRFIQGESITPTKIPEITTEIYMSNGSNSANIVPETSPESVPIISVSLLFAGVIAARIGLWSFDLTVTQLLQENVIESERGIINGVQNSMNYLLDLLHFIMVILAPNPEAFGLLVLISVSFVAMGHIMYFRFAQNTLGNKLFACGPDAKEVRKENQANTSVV
# Assay: Biophysical ferroportin-hepcidin binding assay (fluorescence polarization)
# Settings: TMR-hepcidin, tested as 3HCl-salts, n=2, read-out: Biophysical Ferroportin-Hepcidin Binding (FP) IC50
# Procedure: This biophysical assay was developed to confirm inhibition of hepcidin binding to ferroportin (Fpn) more directly. Incubation of TMR-hepcidin with purified human Fpn isolated from Pichia pastoris yeast cells expressing human Fpn with a C-terminal FLAG affinity tag (Bonaccorsi di Patti, 2014) leads to increased fluorescence polarization (FP) of the TMR-hepcidin ligand.
# A mixture of […] human Fpn and 30 nM TMR-hepcidin in FP assay buffer containing 50 mM Tris-HCI pH 7.3, 200 mM NaCI, 0.02% DDM, 0.1% BSA was plated into a 384 well black low volume round bottom plate (Corning, Cat. 3677) at […] per well. […] of serial dilutions of test compounds were added in duplicates to reach final Fpn and TMR-hepcidin concentrations of […] and 20 nM, respectively. Plates were incubated for 90 minutes at room temperature and parallel (S) and perpendicular (P) fluorescence was measured in a Synergy H1 fluorescence reader (BioTek). FP values were calculated in mP according to the following formula.
# IC50 values were determined with the calculated mP values as described for the hepcidin internalization assay and are listed in Table 2.
compound,measurement,value
O=C(NCc1ncccc1Br)c1coc(CCNCCc2nc3ccccc3[nH]2)n1 [Compound (II′)],IC50,28 nM
O=C(NCc1ncccc1F)c1coc(CCNCCc2nc3ccccc3[nH]2)n1 [Compound (II)],IC50,28 nM

# Reference: patent US20230212159A1, “Process for the Production of Ferroportin Inhibitors” (Vifor (International) AG, priority 2020, published 2023)
